The text below walks through data of patent US8846749B2, “Anticancer-aiding compound, method for preparing the same, anticancer-aiding composition containing the same and method for reducing anticancer drug resistance using the same” (Ewha University-Industry Collaboration Foundation, priority 2009, dated 2014).

One series deals with P-gp (Homo sapiens, UniProt P08183). The note with it: 1 h, 100 μM.
The subject of another series is MCF-7/ADR cells. In words: Effects of compounds on cytotoxicity of daunomycin (SRB staining). In kind it is cell-based. The following applies: Homo sapiens, NCI/ADR-RES, daunomycin alone (DMSO control), 2-hour incubation, SRB after 3 days. Here is the method: The cells were cultured to confluence on the plate at 37° C. for 24 hours.
At this time, the group to which only DMSO was added in place of the compounds in accordance with the present invention was taken as a control. […] After 3 days, cytotoxicity was examined according to an SRB staining method which is briefly described as follows. Cells were fixed with 10% TCA for one hour, washed 4 times with water, and then dried. An SRB reagent (0.4% w/v in 1% acetic acid) was added to each well and one hour later, the plate was washed 4 times with 1% acetic acid.

SMILES strings stand for the structures.

Chain of P-gp (P08183 whole entry): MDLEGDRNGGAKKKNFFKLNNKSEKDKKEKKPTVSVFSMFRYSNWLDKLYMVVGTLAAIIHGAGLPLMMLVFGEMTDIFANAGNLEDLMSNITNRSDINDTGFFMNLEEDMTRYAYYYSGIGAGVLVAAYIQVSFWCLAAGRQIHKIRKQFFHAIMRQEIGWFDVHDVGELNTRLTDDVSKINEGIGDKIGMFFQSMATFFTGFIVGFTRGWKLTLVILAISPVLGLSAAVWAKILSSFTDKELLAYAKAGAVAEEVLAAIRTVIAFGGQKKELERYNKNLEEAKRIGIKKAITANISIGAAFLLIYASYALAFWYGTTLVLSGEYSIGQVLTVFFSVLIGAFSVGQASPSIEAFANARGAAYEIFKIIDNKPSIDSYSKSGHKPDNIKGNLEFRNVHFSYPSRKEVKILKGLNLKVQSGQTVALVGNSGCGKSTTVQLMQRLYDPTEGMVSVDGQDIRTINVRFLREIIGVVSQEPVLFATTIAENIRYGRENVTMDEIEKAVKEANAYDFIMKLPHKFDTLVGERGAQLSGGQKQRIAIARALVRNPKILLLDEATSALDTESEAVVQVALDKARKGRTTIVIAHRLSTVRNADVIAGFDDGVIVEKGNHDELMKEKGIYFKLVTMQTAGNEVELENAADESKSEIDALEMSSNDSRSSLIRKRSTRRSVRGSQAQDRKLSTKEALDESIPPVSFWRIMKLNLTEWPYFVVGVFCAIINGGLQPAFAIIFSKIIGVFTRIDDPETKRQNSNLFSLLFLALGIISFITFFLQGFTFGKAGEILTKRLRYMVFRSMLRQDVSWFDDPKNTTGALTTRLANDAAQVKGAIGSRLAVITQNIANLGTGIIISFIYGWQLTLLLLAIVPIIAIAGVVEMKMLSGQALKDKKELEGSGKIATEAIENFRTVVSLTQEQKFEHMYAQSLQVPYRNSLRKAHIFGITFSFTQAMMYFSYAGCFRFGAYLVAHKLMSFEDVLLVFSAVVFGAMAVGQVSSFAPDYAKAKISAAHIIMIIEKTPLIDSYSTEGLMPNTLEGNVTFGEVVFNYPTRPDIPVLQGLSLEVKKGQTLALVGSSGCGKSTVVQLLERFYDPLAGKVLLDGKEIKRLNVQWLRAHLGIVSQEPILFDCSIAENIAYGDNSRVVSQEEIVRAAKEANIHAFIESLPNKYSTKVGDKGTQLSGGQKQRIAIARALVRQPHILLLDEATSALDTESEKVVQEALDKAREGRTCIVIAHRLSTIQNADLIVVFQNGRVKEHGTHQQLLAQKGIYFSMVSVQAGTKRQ

As a reminder, the melting point is the temperature of the solid-liquid transition. `COc1cccc2c(=O)c3c(O)cc(OCC(O)CCl)cc3oc12` (stereo not shown) [Compound 1, 3-(3-chloro-2-hydroxypropoxy)-1-hydroxy-5-methoxy-9H-xanthen-9-one] registered a melting point of 184 °C.

As for `O=c1c2ccccc2oc2cc(OCC(O)CCl)cc(O)c12` (stereo not shown) [Compound 2, 3-(3-chloro-2-hydroxypropoxy)-1-hydroxy-9H-xanthen-9-one], the melting point came out at 144 °C.

For `COc1cccc2c(=O)c3c(O)cc(OCC4CS4)cc3oc12` (stereo not shown) [Compound 3, 1-hydroxy-5-methoxy-3-(thiiran-2-ylmethoxy)-9H-xanthen-9-one], the melting point came to 187 °C.

Regarding `COc1cccc2c(=O)c3c(OCC4CS4)cc(OCC4CS4)cc3oc12` (stereo not shown) [Compound 5, 1,3-bis(thiiran-2-ylmethoxy)-5-methoxy-9H-xanthen-9-one], the melting point is 240 °C.

`O=c1c2ccccc2oc2cc(OCC(O)CO)cc(O)c12` (stereo not shown) [Compound 6, 3-(2,3-dihydroxypropoxy)-1-hydroxy-9H-xanthen-9-one]: the melting point was 170 °C.

For `COc1cccc2c(=O)c3c(O)cc(OCC(O)CO)cc3oc12` (stereo not shown) [Compound 7, 3-(2,3-dihydroxypropoxy)-1-hydroxy-5-methoxy-9H-xanthen-9-one], the melting point stood at 189 °C.

Compound `O=c1c2ccccc2sc2cc(OCC3CS3)cc(O)c12` (stereo not shown) [Compound 8, 1-hydroxy-3-(thiiran-2-ylmethoxy)-9H-thioxanthen-9-one] showed a melting point of 149 °C.

Consider `COc1cc(OCC(O)CCl)cc2oc3ccccc3c(=O)c12` (stereo not shown) [Compound 9, 3-(3-chloro-2-hydroxypropoxy)-1-methoxy-9H-xanthen-9-one], for which the melting point came out at 107 °C.

In turn, `O=c1c2ccccc2sc2cc(OCC(O)CCl)cc(O)c12` (stereo not shown) [Compound 10, 3-(3-chloro-2-hydroxypropoxy)-1-hydroxy-9H-thioxanthen-9-one] came in with a melting point of 151 °C.

With `O=c1c2ccccc2sc2cc(OCC(S)CCl)cc(O)c12` (stereo not shown) [Compound 11, 3-(3-chloro-2-mercaptopropoxy)-1-hydroxy-9H-thioxanthen-9-one], the melting point was 134 °C.

`O=c1c2ccc3ccccc3c2oc2cc(OCC3CS3)cc(OCC3CS3)c12` (stereo not shown) [Compound 12, 8,10-bis(thiiran-2-ylmethoxy)-7H-benzo[c]xanthen-7-one] yielded a melting point of 202 °C. Further, at P-gp, the “Cellular efflux amount of daunomycin (%)” value is recorded as 40.39 ± 4.38 %.

`COc1cccc2c(=O)c3c(O)cc(OCC(S)CCl)cc3oc12` (stereo not shown) [Compound 13, 3-(3-chloro-2-mercaptopropoxy)-1-hydroxy-5-methoxy-9H-xanthen-9-one]: the melting point came to 125 °C.

`O=c1c2c(O)cc(OCC3CS3)cc2oc2ccc3ccccc3c12` (stereo not shown) [Compound 14, 11-hydroxy-9-(thiiran-2-ylmethoxy)-12H-benzo[a]xanthen-12-one] came in with a melting point of 167 to 168 °C. Moreover, the “Cellular efflux amount of daunomycin (%)” value at P-gp is recorded as 64.81 ± 20.45%.

For the compound `O=c1c2c(OCC3CS3)cc(OCC3CS3)cc2oc2ccc3ccccc3c12` (stereo not shown) [Compound 15, 9,11-bis(thiiran-2-ylmethoxy)-12H-benzo[a]xanthen-12-one], the melting point was 225 to 226 °C. Besides, on P-gp, the “Cellular efflux amount of daunomycin (%)” value turned out to be 40.04 ± 5.33 %.

Regarding `O=c1c2c(OCC3CO3)cc(OCC3CO3)cc2oc2ccc3ccccc3c12` (stereo not shown) [Compound 17, 9,11-bis(oxiran-2-ylmethoxy)-12H-benzo[a]xanthen-12-one], the melting point fell in the range of 198 to 200 °C.

Take `O=c1c2cc3ccccc3cc2oc2cc(OCC3CS3)cc(O)c12` (stereo not shown) [Compound 18, 1-hydroxy-3-(thiiran-2-ylmethoxy)-12H-benzo[b]xanthen-12-one]: the “Cellular efflux amount of daunomycin (%)” value on P-gp is reported as 44.15 ± 5.08 %.

With `O=c1c2cc3ccccc3cc2oc2cc(OCC3CS3)cc(OCC3CS3)c12` (stereo not shown) [Compound 19, 1,3-bis(thiiran-2-ylmethoxy)-12H-benzo[b]xanthen-12-one], at P-gp, the “Cellular efflux amount of daunomycin (%)” value amounted to 42.45 ± 7.23 %.

The IC50 is the concentration that inhibits the measured activity by half. High values mean weaker potency in that assay, low ones greater potency in that assay. In the case of `COc1cccc2c1C(=O)c1c(O)c3c(c(O)c1C2=O)C[C@@](O)(C(C)=O)C[C@@H]3O[C@H]1C[C@H](N)[C@H](O)[C@H](C)O1` [DNM, Daunomycin], the concentration for half-maximal inhibition (IC50) in the series on MCF-7/ADR cells worked out at 25.6 µM.

In the case of `O=c1c2cc3ccccc3cc2oc2cc(OCC3CO3)cc(O)c12` (stereo not shown) [Example 20, 1-hydroxy-3-(oxiran-2-ylmethoxy)-12H-benzo[b]xanthen-12-one], the melting point was 201 to 202 °C.
